Values quoted from earlier work, collected in patent publication US20220240500A1, “Cryopreservation compositions and methods involving nanowarming” (REGENTS OF THE UNIVERSITY OF MINNESOTA, priority 2016, published 2022).

Tested on: zebrafish embryos
Conditions: 2.3 M injected; previous studies

SMILES: CC(O)CO (stereo not shown) [Propylene Glycol]
- survival from injection into the zebrafish embryo: high survival
